# Results from patent US6492384B1, “Imidazo (4,5-C) pyridine-4-one derivatives with factor XA inhibiting effect” (Merck Patent GmbH, priority 1998, dated 2002).
row,Compound,melting point [°C]
1,"Cc1nc(-c2ccc(Cn3ccc4nc(C(C)C)n(Cc5ccc6ccc(-c7noc(C)n7)cc6c5)c4c3=O)cc2)no1 [BC3, 2-isopropyl-3-[7-(5-methyl[1,2,4]oxadiazol-3-yl)naphth-2-ylmethyl]-5-[4-(5-methyl[1,2,4]oxadiazol-3-yl)benzyl]-3,5-dihydroimidazo[4,5-c]pyridin-4-one]",172 to 173
2,"Cc1nc(-c2ccc3ccc(Cn4ccc5nc(C(C)C)n(Cc6ccc7ccc(-c8noc(C)n8)cc7c6)c5c4=O)cc3c2)no1 [BC2, 2-isopropyl-3-[7-(5-methyl[1,2,4]oxadiazol-3-yl)naphth-2-ylmethyl]-5-[7-(5-methyl[1,2,4]oxadiazol-3-yl)naphth-2-ylmethyl]-3,5-dihydroimidazo[4,5-c]pyridin-4-one]",201 to 202
3,"Cc1nc(-c2ccc3ccc(Cn4c(C(C)C)nc5ccn(Cc6ccccc6)c(=O)c54)cc3c2)no1 [BC5, 2-isopropyl-3-[7-(5-methyl[1,2,4]oxadiazol-3-yl)naphth-2-ylmethyl]-5-benzyl-5H-imidazo[4,5-c]pyridin-4-one]",112 to 113
4,"Cc1nc(-c2ccc3ccc(Cn4c(C(C)C)nc5ccn(Cc6ccccc6-c6noc(C)n6)c(=O)c54)cc3c2)no1 [BC4, 2-isopropyl-3-[7-(5-methyl[1,2,4]oxadiazol-3-yl)naphth-2-ylmethyl]-5-[2-(5-methyl[1,2,4]oxadiazol-3-yl)benzyl]-3,5-dihydroimidazo[4,5-c]pyridin-4-one]",149 to 150
